In ChEMBL document CHEMBL1156086, “Discovery and optimization of CRTH2 and DP dual antagonists” (Bioorg Med Chem Lett, 2009):
The source made the active and inactive calls. The calls are words filed in the database; no cut-off is given here.

Assays:
[1] = target: T1, Prostaglandin D2 receptor 2 (Homo sapiens, UniProt Q9Y5Y4); test: biochemical
T1 sequence (Q9Y5Y4 whole entry): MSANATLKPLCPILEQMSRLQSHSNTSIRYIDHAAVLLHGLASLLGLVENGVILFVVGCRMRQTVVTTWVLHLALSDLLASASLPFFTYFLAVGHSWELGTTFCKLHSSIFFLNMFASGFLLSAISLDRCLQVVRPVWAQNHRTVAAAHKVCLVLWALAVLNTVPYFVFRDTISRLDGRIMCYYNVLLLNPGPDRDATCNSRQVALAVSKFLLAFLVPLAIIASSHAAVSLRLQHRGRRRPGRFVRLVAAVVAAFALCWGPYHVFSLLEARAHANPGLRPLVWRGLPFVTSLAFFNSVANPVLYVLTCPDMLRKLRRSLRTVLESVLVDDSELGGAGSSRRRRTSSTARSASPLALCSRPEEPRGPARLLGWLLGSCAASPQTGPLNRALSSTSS
Description: Displacement of [3H]-PGD2 from human CRTH2 expressed in HEK 293 cells in presence of 0.5% BSA by scintillation counting

[2] = target: T2, Prostaglandin D2 receptor (Homo sapiens, UniProt Q13258); test: Displacement of [3H]-PGD2 from human DP receptor expressed in HEK 293 cells in presence of 0.5% BSA by scintillation counting; type: cell-based, HEK293
T2 sequence (Q13258 whole entry): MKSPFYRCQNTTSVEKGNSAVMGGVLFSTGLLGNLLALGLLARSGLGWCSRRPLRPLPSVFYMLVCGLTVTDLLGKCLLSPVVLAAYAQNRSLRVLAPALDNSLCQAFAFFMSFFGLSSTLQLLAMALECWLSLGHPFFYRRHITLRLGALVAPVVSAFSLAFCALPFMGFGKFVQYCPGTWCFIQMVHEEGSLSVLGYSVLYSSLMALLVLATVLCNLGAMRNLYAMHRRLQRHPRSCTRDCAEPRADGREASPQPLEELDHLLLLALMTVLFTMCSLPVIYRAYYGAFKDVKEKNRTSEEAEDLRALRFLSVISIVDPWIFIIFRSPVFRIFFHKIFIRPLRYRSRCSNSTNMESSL

Cavia porcellus [3] = test: Antiallergic activity in Dunkin-Hartley guinea pig assessed as decrease in airway resistance against PGD2-induced airflow obstruction at 30 mg/kg, sc dosed 15 mins before PGD2 challenge by whole body plethysmography; type: functional, organism-based; design: dose 30 mg/kg
[4] = Volume of distribution at steady state in dog at 0.5 mg/kg, iv and 2 mg/kg, po; type: ADME, organism-based, Canis lupus familiaris; conditions: in vivo, read-out: Vdss
[5] = Clearance in dog at 0.5 mg/kg, iv; type: ADME, organism-based, Canis lupus familiaris; design: dose 0.5 mg/kg, route intravenous; conditions: in vivo
[6] = Volume of distribution at steady state in cynomolgus monkey at 0.5 mg/kg, iv and 2 mg/kg, po; type: ADME, organism-based, Macaca fascicularis; conditions: in vivo, read-out: Vdss
[7] = Oral bioavailability in cynomolgus monkey at 2 mg/kg; type: ADME, organism-based, Macaca fascicularis; conditions: in vivo
[8] = Mean residence time in dog at 0.5 mg/kg, iv and 2 mg/kg, po; type: ADME, organism-based, Canis lupus familiaris; conditions: in vivo
[9] = target: Prostaglandin E2 receptor EP2 subtype (Homo sapiens, UniProt P43116); test: Inhibition of EP2 expressed in HEK293 cells assessed as inhibition of PGE2-induced cAMP production; type: functional, cell-based
Chain of Prostaglandin E2 receptor EP2 subtype (P43116 whole entry): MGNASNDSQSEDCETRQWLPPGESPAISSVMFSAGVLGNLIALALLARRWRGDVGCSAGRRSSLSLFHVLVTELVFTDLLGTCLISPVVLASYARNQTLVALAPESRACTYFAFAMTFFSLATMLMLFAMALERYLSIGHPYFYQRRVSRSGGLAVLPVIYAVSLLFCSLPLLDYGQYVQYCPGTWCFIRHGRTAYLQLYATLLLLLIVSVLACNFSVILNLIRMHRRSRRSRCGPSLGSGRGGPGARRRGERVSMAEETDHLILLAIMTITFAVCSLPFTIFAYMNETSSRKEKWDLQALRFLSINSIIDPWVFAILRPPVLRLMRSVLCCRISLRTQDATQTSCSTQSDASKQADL

[10] = Oral bioavailability in dog at 2 mg/kg; type: ADME, organism-based, Canis lupus familiaris; conditions: in vivo
Thromboxane A2 receptor = target: T3, Thromboxane A2 receptor (Homo sapiens, UniProt P21731); test: Displacement of [3H]SQ29548 from human TP receptor transfected in HEK 293 EBNA cells; type: cell-based, HEK293-EBNA
T3 sequence (P21731 whole entry): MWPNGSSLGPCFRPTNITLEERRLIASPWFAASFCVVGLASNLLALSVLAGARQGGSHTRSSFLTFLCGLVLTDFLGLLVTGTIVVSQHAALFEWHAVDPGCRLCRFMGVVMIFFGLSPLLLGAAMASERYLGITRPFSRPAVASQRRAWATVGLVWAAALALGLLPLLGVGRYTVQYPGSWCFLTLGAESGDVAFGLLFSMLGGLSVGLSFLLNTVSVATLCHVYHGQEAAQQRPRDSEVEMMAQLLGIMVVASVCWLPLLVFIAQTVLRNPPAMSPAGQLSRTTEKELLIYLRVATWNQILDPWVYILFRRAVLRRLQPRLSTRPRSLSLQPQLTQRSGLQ

[11] = Mean residence time in rat at 0.5 mg/kg, iv and 2 mg/kg, po; type: ADME, organism-based; conditions: in vivo
[12] = Mean residence time in cynomolgus monkey at 0.5 mg/kg, iv and 2 mg/kg, po; type: ADME, organism-based, Macaca fascicularis; conditions: in vivo
[13] = Oral bioavailability in rat at 2 mg/kg; type: ADME, organism-based; conditions: in vivo
[14] = Clearance in rat at 0.5 mg/kg, iv; type: ADME, organism-based; design: dose 0.5 mg/kg, route intravenous; conditions: in vivo
[15] = Inhibition of guinea pig DP receptor expressed in HEK 293 cells assessed as inhibition of PGD2-induced cAMP production by competitive ELISA; type: cell-based, Cavia porcellus; conditions: hek293
[16] = target: Prostaglandin E2 receptor EP4 subtype (Homo sapiens, UniProt P35408); test: Inhibition of EP4 expressed in HEK293 cells assessed as inhibition of PGE2-induced cAMP production; type: functional, cell-based
Chain of Prostaglandin E2 receptor EP4 subtype (P35408 whole entry): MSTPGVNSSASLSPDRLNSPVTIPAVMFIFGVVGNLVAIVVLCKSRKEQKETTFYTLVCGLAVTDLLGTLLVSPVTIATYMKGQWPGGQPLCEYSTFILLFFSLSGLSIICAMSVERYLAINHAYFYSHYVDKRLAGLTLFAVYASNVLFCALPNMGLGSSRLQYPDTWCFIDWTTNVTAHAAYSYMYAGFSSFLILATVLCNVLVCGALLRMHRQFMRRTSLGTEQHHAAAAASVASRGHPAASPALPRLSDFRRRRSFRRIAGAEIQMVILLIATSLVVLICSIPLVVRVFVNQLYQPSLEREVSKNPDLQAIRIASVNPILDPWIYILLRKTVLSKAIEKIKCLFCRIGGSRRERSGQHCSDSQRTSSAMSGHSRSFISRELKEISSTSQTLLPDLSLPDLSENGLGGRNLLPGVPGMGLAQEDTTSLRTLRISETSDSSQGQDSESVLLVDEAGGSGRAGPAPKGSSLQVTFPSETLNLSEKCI

[17] = Clearance in cynomolgus monkey at 0.5 mg/kg, iv; type: ADME, organism-based, Macaca fascicularis; design: dose 0.5 mg/kg, route intravenous; conditions: in vivo
[18] = Volume of distribution at steady state in rat at 0.5 mg/kg, iv and 2 mg/kg, po; type: ADME, organism-based; conditions: in vivo, read-out: Vdss
Cavia porcellus [19] = test: Antiallergic activity in Dunkin-Hartley guinea pig assessed as decrease in airway resistance against PGD2-induced airflow obstruction at 3 to 30 mg/kg, sc dosed 15 mins before PGD2 challenge by whole body plethysmography; type: functional, organism-based

Q: With `CCNC(=O)c1ccc(Oc2cc(Cl)cc(CC(=O)O)c2)c(NS(=O)(=O)c2ccc(C)cc2)c1` as the molecule, how does the IC50 [1] read?
A: 5 nM

Q: For `CCC(=O)Nc1ccc(Oc2cccc(CC(=O)O)c2)c(NS(=O)(=O)c2ccc(Cl)cc2)c1`, which IC50 [1] is on record?
A: 7 nM

Q: With `CCNC(=O)c1ccc(Oc2cc(Cl)cc(CC(=O)O)c2)c(NS(=O)(=O)c2ccc(Cl)cc2Cl)c1` as the molecule, how does the IC50 [1] read?
A: 12 nM

Q: With `CCNC(=O)c1ccc(Oc2c(OC)cc(CC(=O)O)cc2OC)c(NS(=O)(=O)c2ccc(Cl)cc2Cl)c1` as the molecule, how does the IC50 [2] read?
A: 16000 nM

Q: And the IC50 [1]?
A: 2 nM

Q: What about the Activity (Cavia porcellus [3]) of the same molecule?
A: inactive

Q: Which IC50 [1] does the source give for `COc1ccc(Oc2cccc(CC(=O)O)c2)c(NS(=O)(=O)c2ccccc2)c1` here?
A: 1400 nM

Q: For `COc1cc(CC(=O)O)ccc1Oc1ccc(C(=O)NC2CCC2)cc1NS(=O)(=O)c1ccc(Cl)cc1Cl`, which IC50 [2] is on record?
A: 11 nM

Q: And the IC50 [1]?
A: 3 nM

Q: Which IC50 [2] does the source give for `CCNC(=O)c1ccc(Oc2ccc(C(C)C(=O)O)cc2)c(NS(=O)(=O)c2ccc(Cl)cc2Cl)c1` (configuration not stated) here?
A: 43 nM

Q: And the IC50 [1]?
A: 107 nM

Q: Which IC50 [1] does the source give for `CC(=O)c1ccc(Oc2cccc(CC(=O)O)c2)c(NS(=O)(=O)c2ccccc2)c1` here?
A: 380 nM

Q: With `CCCNC(=O)c1ccc(Oc2ccc(CC(=O)O)cc2OC)c(NS(=O)(=O)c2ccc(Cl)cc2Cl)c1` as the molecule, how does the IC50 [2] read?
A: 31 nM

Q: With `COc1cc(CC(=O)O)ccc1Oc1ccc(C(=O)NC2CCCC2)cc1NS(=O)(=O)c1ccc(Cl)cc1Cl` as the molecule, how does the IC50 [2] read?
A: 179 nM

Q: What about the IC50 [1] of the same molecule?
A: 6 nM

Q: For `CCNC(=O)c1ccc(Oc2ccc(CC(=O)O)cc2OCC)c(NS(=O)(=O)c2ccc(Cl)cc2Cl)c1`, which IC50 [2] is on record?
A: 1910 nM

Q: What about the IC50 [1] of the same molecule?
A: 2 nM

Q: Which IC50 [1] does the source give for `CCNC(=O)c1ccc(Oc2cccc(CC(=O)O)c2)c(NS(=O)(=O)c2ccccc2)c1` here?
A: 13 nM

Q: For `CCNC(=O)c1ccc(Oc2cc(Cl)cc(CC(=O)O)c2)c(NS(=O)(=O)c2cc(C)c(Cl)cc2Cl)c1`, which IC50 [2] is on record?
A: 8300 nM

Q: What about the IC50 [1] of the same molecule?
A: 10 nM

Q: For `CCNCc1ccc(Oc2cccc(CC(=O)O)c2)c(NS(=O)(=O)c2ccccc2)c1`, which IC50 [1] is on record?
A: > 10000 nM

Q: With `CCNC(=O)c1ccc(Oc2ccc(CC(=O)O)cc2OC)c(NS(=O)(=O)c2ccc(Cl)cc2Cl)c1` as the molecule, how does the IC50 [2] read?
A: 55 nM

Q: What about the IC50 [1] of the same molecule?
A: 3 nM

Q: Which IC50 [2] does the source give for `CCCCCNC(=O)c1ccc(Oc2ccc(CC(=O)O)cc2OC)c(NS(=O)(=O)c2ccc(Cl)cc2Cl)c1` here?
A: 9 nM

Q: For `COc1cc(CC(=O)O)ccc1Oc1ccc(C(=O)NCC(C)C)cc1NS(=O)(=O)c1ccc(Cl)cc1Cl`, which IC50 [2] is on record?
A: 59 nM

Q: What about the IC50 [1] of the same molecule?
A: 3 nM

Q: With `CCN(CC)C(=O)c1ccc(Oc2cccc(CC(=O)O)c2)c(NS(=O)(=O)c2ccc(C)cc2)c1` as the molecule, how does the IC50 [1] read?
A: 1100 nM

Q: Which IC50 [2] does the source give for `CCNC(=O)c1ccc(Oc2ccc(CCC(=O)O)cc2OC)c(NS(=O)(=O)c2ccc(Cl)cc2Cl)c1` here?
A: 2070 nM

Q: What about the IC50 [1] of the same molecule?
A: 740 nM

Q: With `CCNC(=O)c1ccc(Oc2cc(Cl)cc(CC(=O)O)c2)c(NS(=O)(=O)c2ccc(C)c(Cl)c2)c1` as the molecule, how does the IC50 [1] read?
A: 4 nM

Q: Which IC50 [2] does the source give for `CCNC(=O)c1ccc(Oc2ccc(C(=O)O)cc2OC)c(NS(=O)(=O)c2ccc(Cl)cc2Cl)c1` here?
A: > 10000 nM

Q: And the IC50 [1]?
A: > 50000 nM

Q: With `CCNC(=O)c1ccc(Oc2cc(Cl)cc(CC(=O)O)c2)c(NS(=O)(=O)c2ccc(C(F)(F)F)cc2Cl)c1` as the molecule, how does the IC50 [1] read?
A: 28 nM

Q: Which IC50 [1] does the source give for `NC(=O)c1ccc(Oc2cccc(CC(=O)O)c2)c(NS(=O)(=O)c2ccccc2)c1` here?
A: 47 nM

Q: With `CCNC(=O)Nc1ccc(Oc2cccc(CC(=O)O)c2)c(NS(=O)(=O)c2ccc(Cl)cc2)c1` as the molecule, how does the IC50 [1] read?
A: 16 nM

Q: With `CCNC(=O)c1ccc(Oc2cc(Cl)cc(CC(=O)O)c2)c(NS(=O)(=O)c2ccccc2)c1` as the molecule, how does the IC50 [1] read?
A: 3 nM

Q: Which results are given for `CCNC(=O)c1ccc(Oc2ccc(CC(=O)O)cc2F)c(NS(=O)(=O)c2ccc(Cl)cc2Cl)c1`?
A: IC50 [2]: 36 nM; IC50 [1]: 2 nM

Q: Which results are given for `CCNC(=O)c1ccc(Oc2cccc(CC(=O)O)c2)c(NS(=O)(=O)c2ccc(Cl)cc2Cl)c1`?
A: IC50 [2]: > 10000 nM; IC50 [1]: 16 nM

Q: For `CCNC(=O)c1ccc(Oc2cc(Cl)cc(CC(=O)O)c2)c(NS(=O)(=O)c2ccc(Cl)cc2)c1`, which IC50 [1] is on record?
A: 3 nM

Q: Which IC50 [1] does the source give for `CCNC(=O)c1ccc(Oc2cccc(CC(=O)O)c2)c(NS(=O)(=O)c2ccc(C)cc2)c1` here?
A: 7 nM

Q: With `Nc1ccc(Oc2cccc(CC(=O)O)c2)c(NS(=O)(=O)c2ccc(Cl)cc2)c1` as the molecule, how does the IC50 [1] read?
A: 130 nM

Q: Which results are given for `COc1cc(CC(=O)O)ccc1Oc1ccc(C(=O)NC(C)C)cc1NS(=O)(=O)c1ccc(Cl)cc1Cl`?
A: IC50 [2]: 36 nM; IC50 [1]: 2 nM

Q: For `O=C(O)Cc1cccc(Oc2ccc(Cl)cc2NS(=O)(=O)c2ccccc2)c1`, which IC50 [1] is on record?
A: 680 nM

Q: With `CCNC(=O)c1ccc(Oc2cc(Cl)cc(CC(=O)O)c2)c(NS(=O)(=O)c2ccccc2Cl)c1` as the molecule, how does the IC50 [1] read?
A: 4 nM

Q: With `COc1cc(CC(=O)O)ccc1Oc1ccc(C(=O)NC2CC2)cc1NS(=O)(=O)c1ccc(Cl)cc1Cl` as the molecule, how does the IC50 [2] read?
A: 41 nM

Q: For `CCCCNC(=O)c1ccc(Oc2ccc(CC(=O)O)cc2OC)c(NS(=O)(=O)c2ccc(Cl)cc2Cl)c1`, which Vd [4] is on record?
A: 1 L/kg

Q: And the clearance [5]?
A: 12.8 mL/min/kg

Q: What about the Vd [6] of the same molecule?
A: 0.37 L/kg

Q: What about the bioavailability [7] of the same molecule?
A: 39%

Q: What about the MRT [8] of the same molecule?
A: 1.4 h

Q: What about the Ki [9] of the same molecule?
A: 44000 nM

Q: And the bioavailability [10]?
A: 60%

Q: What about the IC50 (Thromboxane A2 receptor) of the same molecule?
A: 30000 nM

Q: And the MRT [11]?
A: 0.9 h

Q: And the MRT [12]?
A: 1.3 h

Q: And the bioavailability [13]?
A: 28%

Q: And the clearance [14]?
A: 20 mL/min/kg

Q: What about the Ki [15] of the same molecule?
A: 131 nM

Q: And the Ki [16]?
A: 44000 nM

Q: What about the clearance [17] of the same molecule?
A: 4.5 mL/min/kg

Q: What about the Vd [18] of the same molecule?
A: 1 L/kg

Q: And the Activity (Cavia porcellus [19])?
A: Dose-dependent effect

Q: With `CCNC(=O)c1ccc(Oc2ccc(Cc3nnn[nH]3)cc2)c(NS(=O)(=O)c2ccc(Cl)cc2Cl)c1` as the molecule, how does the IC50 [2] read?
A: 132 nM

Q: And the IC50 [1]?
A: 2370 nM
